Like-named read-outs stand apart in the source and are kept apart here.
Tests used:
cyclin E/CDK2 enzyme = biological target: T1, cyclin E/CDK2 enzyme (Homo sapiens, UniProt P24941); test: CDK2 ELISA kinase assay (phospho-Rb ser 795 detection); assay type: biochemical
T1 construct: made in house; host or cells: Sf9 insect cells, recombinant baculovirus
In short: (§1)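 Inhibition was derived from A450 relative to control wells lacking compound, following an anti-phospho-Rb Ser795 sandwich of HRP detection. The reactions combined coated GST-Rb fragment, 200 μM ATP and baculovirus-expressed cyclin/CDK enzymes, incubated for 1 h at 30° C.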

HCT-116 = test: Cytotoxicity assay (SRB), HCT-116; assay type: cell-based; conditions: Homo sapiens, HCT-116, 72 h, HCT116 cells, SRB, read-out: In Vitro Cellular Activity IC50 HCT116
In short: (§2)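 Percentage survival is derived from SRB absorbance (540 nm) versus untreated cells. Exposures were 3 days, except 6 days for BT474, at 37 °C and 7% CO2.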

MCF-7 = test: Cytotoxicity assay (SRB), MCF-7; assay type: cell-based; conditions: Homo sapiens, MCF7, 72 h, MCF-7 cells, SRB, read-out: In Vitro Cellular Activity IC50 MCF-7
In short: as §2

cyclin B/CDK1 enzyme = biological target: T2, cyclin B/CDK1 enzyme (Homo sapiens, UniProt P06493); test: CDK1 ELISA kinase assay (phospho-Rb ser 795 detection); assay type: biochemical
T2 construct: purchased New England BioLabs; host or cells: Sf9 insect cells, recombinant baculovirus
In short: as §1

cyclin D1/cdk 4 enzyme = biological target: T3, cyclin D1/cdk 4 enzyme (Homo sapiens, UniProt P11802); test: CDK4 ELISA kinase assay (phospho-Rb ser 795 detection); assay type: biochemical
T3 construct: made in house; host or cells: Sf9 insect cells, recombinant baculovirus
In short: as §1

BT474 = test: Cytotoxicity assay (SRB), BT474; assay type: cell-based
In short: as §2

LoVo = test: Cytotoxicity assay (SRB), LoVo; assay type: cell-based; conditions: Homo sapiens, LoVo, 72 h, LoVo cells, SRB, read-out: In Vitro Cellular Activity IC50 LOVO
In short: as §2

[1] = In Vitro Enzyme Assays, read-out: CDK2 IC50
[2] = In Vitro Enzyme Assays, read-out: CDK1 IC50
[3] = In Vitro Enzyme Assays, 200 μM ATP, read-out: CDK4 IC50
[4] = Homo sapiens, BT-474, 144 h, BT474 cells, 6 days, SRB; read-out: In Vitro Cellular Activity IC50 BT474
[5] = Homo sapiens, BT-474, 144 h, BT474 cells, SRB, 6 days; read-out: In Vitro Cellular Activity IC50 BT474
[6] = In Vitro Enzyme Assay, cyclin E/CDK2, read-out: CDK2 IC50
[7] = In Vitro Enzyme Assay, cyclin B/CDK1, read-out: CDK1 IC50
[8] = In Vitro Enzyme Assay, cyclin D1/cdk 4, read-out: CDK4 IC50

T3 sequence (P11802 whole entry, species assumed): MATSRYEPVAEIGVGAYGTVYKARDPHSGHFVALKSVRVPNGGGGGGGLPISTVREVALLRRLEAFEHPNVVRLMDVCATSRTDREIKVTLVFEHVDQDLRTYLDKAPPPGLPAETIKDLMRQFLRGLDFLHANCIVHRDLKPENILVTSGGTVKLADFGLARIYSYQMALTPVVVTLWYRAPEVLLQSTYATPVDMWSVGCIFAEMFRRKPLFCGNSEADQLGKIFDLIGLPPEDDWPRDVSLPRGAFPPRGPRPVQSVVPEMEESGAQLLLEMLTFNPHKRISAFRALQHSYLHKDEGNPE
T3 sequence (P24385 whole entry partner, species assumed): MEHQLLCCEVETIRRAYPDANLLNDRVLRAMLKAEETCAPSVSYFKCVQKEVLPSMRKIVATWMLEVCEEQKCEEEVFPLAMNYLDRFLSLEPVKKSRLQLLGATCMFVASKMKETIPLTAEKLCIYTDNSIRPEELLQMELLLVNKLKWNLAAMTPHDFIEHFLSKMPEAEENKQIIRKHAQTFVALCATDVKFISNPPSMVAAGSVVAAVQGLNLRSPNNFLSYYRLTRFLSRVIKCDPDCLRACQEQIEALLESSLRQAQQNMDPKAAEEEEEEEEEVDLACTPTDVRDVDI
T2 sequence (P06493 whole entry): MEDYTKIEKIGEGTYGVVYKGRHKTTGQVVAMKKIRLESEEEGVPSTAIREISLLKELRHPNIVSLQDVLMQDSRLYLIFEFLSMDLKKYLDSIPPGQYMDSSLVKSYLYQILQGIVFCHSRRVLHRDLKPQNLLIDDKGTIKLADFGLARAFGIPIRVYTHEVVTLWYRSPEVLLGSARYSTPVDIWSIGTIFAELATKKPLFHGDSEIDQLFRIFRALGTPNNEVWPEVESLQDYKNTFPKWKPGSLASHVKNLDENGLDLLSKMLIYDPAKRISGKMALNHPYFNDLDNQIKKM
T2 sequence (P14635 whole entry partner): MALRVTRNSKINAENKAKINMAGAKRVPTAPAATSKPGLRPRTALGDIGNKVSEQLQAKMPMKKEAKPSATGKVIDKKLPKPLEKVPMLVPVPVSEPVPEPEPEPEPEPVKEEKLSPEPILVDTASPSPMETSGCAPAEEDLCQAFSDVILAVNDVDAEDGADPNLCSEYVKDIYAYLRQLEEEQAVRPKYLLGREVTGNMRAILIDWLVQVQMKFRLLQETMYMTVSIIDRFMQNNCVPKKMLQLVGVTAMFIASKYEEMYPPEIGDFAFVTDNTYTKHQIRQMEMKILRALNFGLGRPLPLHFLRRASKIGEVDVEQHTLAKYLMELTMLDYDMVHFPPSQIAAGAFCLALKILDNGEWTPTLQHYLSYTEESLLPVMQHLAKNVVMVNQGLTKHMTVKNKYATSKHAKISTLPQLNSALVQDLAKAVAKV

SMILES | IC50 (cyclin E/CDK2 enzyme; [1]) [µM] | IC50 (cyclin B/CDK1 enzyme; [2]) [µM] | IC50 (cyclin D1/cdk 4 enzyme; [3]) [µM] | IC50 (cyclin E/CDK2 enzyme; [6]) [µM] | IC50 (cyclin B/CDK1 enzyme; [7]) [µM] | IC50 (cyclin D1/cdk 4 enzyme; [8]) [µM] | IC50 (HCT-116; 3 days) [µM] | IC50 (MCF-7; 3 days) [µM] | IC50 (BT474; [4]) [µM] | IC50 (LoVo; 3 days) [µM] | IC50 (HCT-116; three days) [µM] | IC50 (MCF-7; three days) [µM] | IC50 (BT474; [5]) [µM] | IC50 (LoVo; three days) [µM]
CCN1CCN(c2ccc(N/C=C3\C(=O)NC(=O)c4ccc(I)cc43)cn2)CC1 [Example 414, (4Z)-4-({[6-(4-Ethylpiperazin-1-yl)pyridin-3-yl]amino}methylene)-6-iodoisoquinoline-1,3(2H,4H)-dione] | > 50 | > 50 | 0.5 |  |  |  | 2.4 | 6 | 6.2 | 6.2 |  |  |  | 
COc1c(O)cc(CN/C=C2\C(=O)NC(=O)c3ccc(Br)cc32)cc1O [Example 210, (4Z)-6-Bromo-4-{[(3,5-dihydroxy-4-methoxybenzyl)amino]methylene}isoquinoline-1,3(2H,4H)-dione] | 2.1 | 18.9 | 0.008 |  |  |  |  |  |  |  | 10 | 6.6 | 13 | 10
CN(C)CCCCCN/C=C1\C(=O)NC(=O)c2ccc(Br)cc21 [Example 304, (Z)-6-Bromo-4-((5-(dimethylamino)pentylamino)methylene)isoquinoline-1,3(2H,4H)-dione] | 36.3 | > 50 | 1.5 |  |  |  |  |  |  |  | 13 | 7.1 | 16 | 6.7
O=C1NC(=O)c2ccc(-c3cccc4cccnc34)cc2C1=CNCc1ccc(O)c(O)c1 [Example 642, 4-[(3,4-Dihydroxy-benzylamino)-methylene]-6-quinolin-8-yl-4H-isoquinoline-1,3-dione] |  |  |  | 28.3 | > 50 | 1 | 20.5 | 12.7 | 14.2 | 12.1 |  |  |  | 
O=C1NC(=O)c2ccc(Br)cc2/C1=C/NCc1ccc(OCCN2CCCC2)c(O)c1 [Example 143, (4Z)-6-Bromo-4-({[3-hydroxy-4-(2-pyrrolidin-1-ylethoxy)benzyl]amino}methylene) isoquinoline-1,3(2H,4H)-dione] | 1.1 | 13.6 | 0.06 |  |  |  |  |  |  |  | 3 | 4.3 | 5.7 | 8.8
CN1CCN(c2ccc(N/C=C3\C(=O)NC(=O)c4ccc(-c5coc(CN6CCCC6)c5)cc43)nc2)CC1 [Example 449, (4Z)-4-({[5-(4-Methylpiperazin-1-yl)pyridin-2-yl]amino}methylene)-6-[5-(pyrrolidin-1-ylmethyl)-3-furyl]isoquinoline-1,3(2H,4H)-dione] | > 50 | > 50 | 3.6 |  |  |  | 2.6 | 3.5 | 8.1 | 2.2 |  |  |  | 
O=C1NC(=O)c2ccc(-c3ccc(CO)cc3)cc2C1=CNCc1ccc(O)c(O)c1 [Example 817, 4-[(3,4-Dihydroxy-benzylamino)-methylene]-6-(4-hydroxymethyl-phenyl)-4H-isoquinoline-1,3-dione] |  |  |  | 7 | 7 | 0.04 | 46.9 | 24.9 | 16.2 | 34.9 |  |  |  | 
CC(=O)Nc1ccc(CN/C=C2\C(=O)NC(=O)c3ccc(I)cc32)cc1O [Example 151, N-[2-Hydroxy-4-({[(Z)-(6-iodo-1,3-dioxo-2,3-dihydroisoquinolin-4(1H)-′ylidene)methyl]amino}methyl)phenyl]acetamide] | 1.8 | 36.4 | 0.03 |  |  |  |  |  |  |  | 1.3 | 6.6 | 0.9 | 1.9
O=C1NC(=O)c2ccc(-c3ccc(OC(F)(F)F)cc3)cc2C1=CNCc1ccc(O)c(O)c1 [Example 818, 4-[(3,4-Dihydroxy-benzylamino)-methylene]-6-(4-trifluoromethoxy-phenyl)-4H-isoquinoline-1,3-dione] |  |  |  | 30.3 | 36.3 | 0.79 | 11.7 | 10.5 | 22.9 | 7.4 |  |  |  | 
CN(C)CC1CCCN1c1ccc(N/C=C2\C(=O)NC(=O)c3ccc(I)cc32)cc1F (stereo not shown) [Example 412, 4-{[4-(2-Dimethylaminomethyl-pyrrolidin-1-yl)-3-fluoro-phenylamino]-methylene}-6-iodo-4H-isoquinoline-1,3-dione] | > 50 | > 50 | 3.3 |  |  |  | 1.8 | 4.3 | 5.6 | 3.2 |  |  |  | 
C/C=C(\C)C(=O)Nc1ccc(CN/C=C2\C(=O)NC(=O)c3ccc(I)cc32)cc1O [Example 336, (2E)-N-[2-Hydroxy-4-({[(Z)-(6-iodo-1,3-dioxo-2,3-dihydroisoquinolin-4(1H)-ylidene)methyl]amino}methyl)phenyl]-2-methylbut-2-enamide] | 5.8 | > 50 | 0.04 |  |  |  |  |  |  |  | 12 | 6.1 | 19 | 14

More lines, main results first:

IC50 (cyclin E/CDK2 enzyme; [1]) [µM] | IC50 (cyclin B/CDK1 enzyme; [2]) [µM] | IC50 (cyclin D1/cdk 4 enzyme; [3]) [µM] | IC50 (cyclin E/CDK2 enzyme; [6]) [µM] | IC50 (cyclin B/CDK1 enzyme; [7]) [µM] | IC50 (cyclin D1/cdk 4 enzyme; [8]) [µM] | SMILES | IC50 (HCT-116; 3 days) [µM] | IC50 (MCF-7; 3 days) [µM] | IC50 (BT474; [4]) [µM] | IC50 (LoVo; 3 days) [µM] | IC50 (HCT-116; three days) [µM] | IC50 (MCF-7; three days) [µM] | IC50 (BT474; [5]) [µM] | IC50 (LoVo; three days) [µM]
20.2 | 38 | 2.5 |  |  |  | O=C1NC(=O)c2ccc(Br)cc2/C1=C/NCCCCO [Example 211, (4Z)-6-Bromo-4-{[(4-hydroxybutyl)amino]methylene}isoquinoline-1,3(2H,4H)-dione] |  |  |  |  | 27 | 24 | 29 | 48
14.7 | > 50 | 22.6 |  |  |  | O=C1NC(=O)c2ccc(Br)cc2/C1=C/Nc1ccc(-n2ccnc2)cc1 [Example 260, (4Z)-6-Bromo-4-({[4-(1H-imidazol-1-yl)phenyl]amino}methylene)isoquinoline-1,3(2H,4H)-dione] |  |  |  |  | 5.4 | > 50 | > 50 | > 50
4.1 | 8.6 | 1.3 |  |  |  | O=C1NC(=O)c2ccc(I)cc2/C1=C/Nc1ccc(N2CCC(C(=O)O)CC2)cc1 [Example 431, 1-(4-{[(Z)-(6-Iodo-1,3-dioxo-2,3-dihydroisoquinolin-4(1H)-ylidene)methyl]amino}phenyl)piperidine-4-carboxylic acid] | 6.1 | 8.8 | 6.4 | 5.8 |  |  |  | 
 |  |  | > 50 | 21.1 | 0.26 | CC(=O)c1ccc(-c2ccc3c(c2)C(=CNc2ccc(N4CCN(C)CC4)cc2)C(=O)NC3=O)cc1 [Example 688, 6-(4-Acetyl-phenyl)-4-{[4-(4-methyl-piperazin-1-yl)-phenylamino]-methylene}-4H-isoquinoline-1,3-dione] | 2 | 5 | 3.3 | 4.6 |  |  |  | 
 |  |  | > 50 | > 50 | 0.64 | CN1CCN(c2ccc(NC=C3C(=O)NC(=O)c4ccc(-c5ccc[nH]5)cc43)cc2)CC1 [Example 672, 4-{[4-(4-Methyl-piperazin-1-yl)-phenylamino]-methylene}-6-(1H-pyrrol-2-yl)-4H-isoquinoline-1,3-dione] | 3.4 | 3.2 | 7.9 | 2.9 |  |  |  | 
> 50 | > 50 | 4.3 |  |  |  | CN(CCN1CCCCC1)c1ccc(N/C=C2\C(=O)NC(=O)c3ccc(Br)cc32)cc1 [Example 256, (4Z)-6-Bromo-4-[({4-[methyl(2-piperidin-1-ylethyl)amino]phenyl}amino)methylene]isoquinoline-1,3(2H,4H)-dione] |  |  |  |  | 3.1 | 5.3 | 7.5 | 3.6
 |  |  | > 50 | > 50 | 1 | CN1CCN(c2ccc(NC=C3C(=O)NC(=O)c4ccc(-c5cc[nH]c5)cc43)cc2)CC1 [Example 673, 4-{[4-(4-Methyl-piperazin-1-yl)-phenylamino]-methylene}-6-(1H-pyrrol-3-yl)-4H-isoquinoline-1,3-dione] | 3 | 5.8 | 8.5 | 5 |  |  |  | 
 |  |  | 21.3 | > 50 | 16.5 | CC1CCCN1Cc1ccc(NC=C2C(=O)NC(=O)c3ccccc32)cc1 (stereo not shown) [Example 617, 4-{[4-(2-Methyl-pyrrolidin-1-ylmethyl)-phenylamino]-methylene}-4H-isoquinoline-1,3-dione] | 7.6 | 11.2 | 18.5 | 14 |  |  |  | 
